Data from ChEMBL document CHEMBL4340571, “Investigation of flexibility of neuraminidase 150-loop using tamiflu derivatives in influenza A viruses H1N1 and H5N1” (Bioorg Med Chem, 2019).

Tests used:
[1] = Inhibition of Influenza A virus (A/California/07/2009(H1N1)) Neuraminidase N1 at pH 7.4 by DIANA assay
[2] = Selectivity index, ratio of Ki for inhibition of Influenza A virus (A/California/07/2009(H1N1)) Neuraminidase N1 by DIANA assay to Ki for inhibition of influenza A virus chicken/Nakorn- Patom/Thailand/CU-K2-2004 Neuraminidase N1 by DIANA assay
[3] = Inhibition of Influenza A virus (A/California/07/2009(H1N1)) Neuraminidase N1 at pH 6.15 using 4-MUNANA substrate incubated for 20 mins by fluorometric assay

Structure (SMILES)	Ki [1] [µM]	Ratio Ki [2]	Ki [3] [µM]
CCC(CC)O[C@@H]1C=C(C(=O)O)C[C@H](n2cc(CNc3ccccc3)nn2)[C@H]1NC(C)=O	19	2 to 4	
CCC(CC)O[C@@H]1C=C(C(=O)O)C[C@H](n2cc(CNc3ccccc3C(N)=O)nn2)[C@H]1NC(C)=O	13	2 to 4	
CCC(CC)O[C@@H]1C=C(C(=O)O)C[C@H](NCc2cn(CCO)nn2)[C@H]1NC(C)=O	0.75		0.65
CCC(CC)O[C@@H]1C=C(C(=O)O)C[C@H](NCc2cn(CC(=O)O)nn2)[C@H]1NC(C)=O	2.8		
CCC(CC)O[C@@H]1C=C(C(=O)O)C[C@H](N=[N+]=[N-])[C@H]1NC(C)=O			0.91
CCC(CC)O[C@@H]1C=C(C(=O)O)C[C@H](NCc2cn(CCN3CCS(=O)(=O)CC3)nn2)[C@H]1NC(C)=O	12		
CCC(CC)O[C@@H]1C=C(C(=O)O)C[C@H](n2cc(C[C@H](N)C(=O)O)nn2)[C@H]1NC(C)=O	64	2 to 4	
CCC(CC)O[C@@H]1C=C(C(=O)O)C[C@H](n2cc(-c3ccsc3)nn2)[C@H]1NC(C)=O	16	2 to 4	
CCC(CC)O[C@@H]1C=C(C(=O)O)C[C@H](n2cc(-c3cccs3)nn2)[C@H]1NC(C)=O	20	2 to 4	
CCC(CC)O[C@@H]1C=C(C(=O)O)C[C@H](n2cc(CNc3ccc(NC(C)=O)cc3)nn2)[C@H]1NC(C)=O	9.1	2 to 4	
CCC(CC)O[C@@H]1C=C(C(=O)O)C[C@H](NCc2cn(CC(=O)NC)nn2)[C@H]1NC(C)=O	1.2		0.87
CCC(CC)O[C@@H]1C=C(C(=O)O)C[C@H](n2cc(CNc3cccc(C(F)(F)F)c3)nn2)[C@H]1NC(C)=O	4.2	2 to 4	0.47
CCC(CC)O[C@@H]1C=C(C(=O)O)C[C@H](n2cc(CO)nn2)[C@H]1NC(C)=O	12	2 to 4	0.47
CCC(CC)O[C@@H]1C=C(C(=O)O)C[C@H](NCc2cn(CC(C)(CO)CO)nn2)[C@H]1NC(C)=O	0.89		
CCC(CC)O[C@@H]1C=C(C(=O)O)C[C@H](n2cc(CNc3cc(F)ccc3OC)nn2)[C@H]1NC(C)=O	22	2 to 4	
CCC(CC)O[C@@H]1C=C(C(=O)O)C[C@H](n2cc(C[C@@]3(C(=O)O)CCCN3)nn2)[C@H]1NC(C)=O	98	2 to 4	
CCC(CC)O[C@@H]1C=C(C(=O)O)C[C@H](N)[C@H]1NC(C)=O [OSELTAMIVIR CARBOXYLATE]	0.031		0.024
CCC(CC)O[C@@H]1C=C(C(=O)O)C[C@H](n2cc(CN(C)c3ccc(OC)cc3)nn2)[C@H]1NC(C)=O	19	2 to 4	
CCC(CC)O[C@@H]1C=C(C(=O)O)C[C@H](n2cc(CNc3ccc(C(N)=O)c(C(F)(F)F)c3)nn2)[C@H]1NC(C)=O	14	2 to 4	
CCC(CC)O[C@H]1CC(C(=O)O)=C[C@@H](n2cc(CN3CCS(=O)(=O)CC3)nn2)[C@@H]1NC(C)=O	340	2 to 4	
CCC(CC)O[C@@H]1C=C(C(=O)O)C[C@H](NCc2cn(CC(=O)N(C)C)nn2)[C@H]1NC(C)=O	5.9		
CCOC(=O)C1=C[C@@H](OC(CC)CC)[C@H](NC(C)=O)[C@@H](N)C1 [OSELTAMIVIR PHOSPHATE]	2		
CCC(CC)O[C@@H]1C=C(C(=O)O)C[C@H](n2cc(COCC(C)(CO)CO)nn2)[C@H]1NC(C)=O	180	2 to 4	
